Reference: patent US20090054392A1, “NAPHTHYLPYRIMIDINE, NAPHTHYLPYRAZINE AND NAPHTHYLPYRIDAZINE ANALOGS AND THEIR USE AS AGONISTS OF THE WNT-BETA-CATENIN CELLULAR MESSAGING SYSTEM” (Wyeth, priority 2007, published 2009)

System: Dkk1-LRP5-TCF-Luciferase
Test: Functional Dkk1-LRP5-TCF-Luciferase Assay in U2OS Cells
Conditions: for fold induction at 20 µM / fold induction at 2 µM / EC50: Homo sapiens, U2OS; for fold induction at 20 µM: read-out: C = TCF ACTIVITY/DMSO CONTROL Fold induction @ 20.0 uM, 20.0 uM compound; for fold induction at 2 µM: read-out: B = TCF ACTIVITY/DMSO CONTROL Fold induction @ 2.0 uM, 2.0 uM compound; for A = MAX FOLD Induction/DMSO CONTROL: maximum fold induction over DMSO control

| A = MAX FOLD Induction/DMSO CONTROL [fold] | EC50 [µM] | Compound | fold induction at 20 µM | fold induction at 2 µM |
| --- | --- | --- | --- | --- |
| – | – | CS(=O)(=O)N1CC(CNc2nccc(-c3ccc4ccccc4c3)n2)C1 [N-{[1-(methylsulfonyl)azetidin-3-yl]methyl}-4-(2-naphthyl)pyrimidin-2-amine] | 1.52 | – |
| – | – | CS(=O)(=O)N1CCC(CNc2nccc(-c3ccc4ccccc4c3)n2)CC1 [N-{[1-(methylsulfonyl)piperidin-4-yl]methyl}-4-(2-naphthyl)pyrimidin-2-amine] | 1.35 | 1.54 |
| – | – | O=C(NCCC1CCN(c2nccc(-c3ccc4ccccc4c3)n2)CC1)OCc1ccccc1 [benzyl (2-{1-[4-(2-naphthyl)pyrimidin-2-yl]piperidin-4-yl}ethyl)carbamate] | 1.49 | 0.86 |
| – | – | CC(C)(C)OC(=O)/N=C(/NCC1CCN(c2nccc(-c3ccc4ccccc4c3)n2)CC1)NC(=O)OC(C)(C)C [di-tert-butyl {(Z)-[({1-[4-(2-naphthyl)pyrimidin-2-yl]piperidin-4-yl}methyl)amino]methylylidene}biscarbamate] | 1.35 | 0.94 |
| – | – | CCOC(=O)N(CCN1CCN(c2nccc(-c3ccc4ccccc4c3)n2)CC1)C(=O)OCC [diethyl (2-{4-[4-(2-naphthyl)pyrimidin-2-yl]piperazin-1-yl}ethyl)imidodicarbonate] | – | 1.72 |
| 1.950 | – | CCOC(=O)C1CCN(c2nccc(-c3ccc4ccccc4c3)n2)CC1 [ethyl 1-[4-(2-naphthyl)pyrimidin-2-yl]piperidine-4-carboxylate] | 1.91 | 1.64 |
| 1.790 | 30 | CCOC(=O)N1CCCN(c2nccc(-c3ccc4ccccc4c3)n2)CC1 [ethyl 4-[4-(2-naphthyl)pyrimidin-2-yl]-1,4-diazepane-1-carboxylate] | 2.49 | – |
| – | – | CCOC(=O)N1CC[C@@H](Nc2nccc(-c3ccc4ccccc4c3)n2)C1 [ethyl (3R)-3-{[4-(2-naphthyl)pyrimidin-2-yl]amino}pyrrolidine-1-carboxylate] | 1.3 | – |
| – | – | CCOC(=O)N1CC[C@H](Nc2nccc(-c3ccc4ccccc4c3)n2)C1 [ethyl (3S)-3-{[4-(2-naphthyl)pyrimidin-2-yl]amino}pyrrolidine-1-carboxylate] | 1.54 | 1.28 |
| – | – | CCOC(=O)CC1CCN(c2nccc(-c3ccc4ccccc4c3)n2)CC1 [ethyl {1-[4-(2-naphthyl)pyrimidin-2-yl]piperidin-4-yl}acetate] | 1.06 | 1.26 |
| – | – | CCOC(=O)N[C@@H]1CCN(c2nccc(-c3ccc4ccccc4c3)n2)C1 [ethyl {(3R)-1-[4-(2-naphthyl)pyrimidin-2-yl]pyrrolidin-3-yl}carbamate] | 0.69 | 1.21 |
| – | – | CCOC(=O)N[C@H]1CCN(c2nccc(-c3ccc4ccccc4c3)n2)C1 [ethyl {(3S)-1-[4-(2-naphthyl)pyrimidin-2-yl]pyrrolidin-3-yl}carbamate] | 1.94 | 1.02 |
| – | – | COC(=O)C1CCN(c2nccc(-c3ccc4ccccc4c3)n2)CC1 [methyl 1-[4-(2-naphthyl)pyrimidin-2-yl]piperidine-4-carboxylate] | 1.39 | – |
| 1.930 | 30 | COC(=O)N1CCCN(c2nccc(-c3ccc4ccccc4c3)n2)CC1 [methyl 4-[4-(2-naphthyl)pyrimidin-2-yl]-1,4-diazepane-1-carboxylate] | 1.88 | – |
| – | – | COC(=O)N1CCC(N(C)c2nccc(-c3ccc4ccccc4c3)n2)CC1 [methyl 4-{methyl[4-(2-naphthyl)pyrimidin-2-yl]amino}piperidine-1-carboxylate] | 1.47 | 1.43 |
| – | – | COC(=O)NCCC1CCN(c2nccc(-c3ccc4ccccc4c3)n2)CC1 [methyl (2-{1-[4-(2-naphthyl)pyrimidin-2-yl]piperidin-4-yl}ethyl)carbamate] | 0.89 | 1.39 |
| – | – | COC(=O)[C@H](NC(=O)OC(C)(C)C)C1CCN(c2nccc(-c3ccc4ccccc4c3)n2)CC1 [methyl (2R)-[(tert-butoxycarbonyl)amino]{1-[4-(2-naphthyl)pyrimidin-2-yl]piperidin-4-yl}acetate] | 0.77 | – |
| 3.200 | 8.86 | COC(=O)[C@H](N)C1CCN(c2nccc(-c3ccc4ccccc4c3)n2)CC1 [methyl (2R)-amino{1-[4-(2-naphthyl)pyrimidin-2-yl]piperidin-4-yl}acetate] | 1.05 | 1.68 |
| – | – | COC(=O)[C@@H](NC(=O)OC(C)(C)C)C1CCN(c2nccc(-c3ccc4ccccc4c3)n2)CC1 [methyl (2S)-[(tert-butoxycarbonyl)amino]{1-[4-(2-naphthyl)pyrimidin-2-yl]piperidin-4-yl}acetate] | 0.7 | – |

| A = MAX FOLD Induction/DMSO CONTROL [fold] | EC50 [µM] | Compound | fold induction at 20 µM | fold induction at 2 µM |
| --- | --- | --- | --- | --- |
| 1.590 | – | COC(=O)[C@@H](N)C1CCN(c2nccc(-c3ccc4ccccc4c3)n2)CC1 [methyl (2S)-amino{1-[4-(2-naphthyl)pyrimidin-2-yl]piperidin-4-yl}acetate] | 0.57 | – |
| 1.360 | – | COC(=O)N1CC[C@@H](Nc2nccc(-c3ccc4ccccc4c3)n2)C1 [methyl (3R)-3-{[4-(2-naphthyl)pyrimidin-2-yl]amino}pyrrolidine-1-carboxylate] | 2.35 | – |
| 2.725 | 2.77 | COC(=O)N1CC[C@H](Nc2nccc(-c3ccc4ccccc4c3)n2)C1 [methyl (3S)-3-{[4-(2-naphthyl)pyrimidin-2-yl]amino}pyrrolidine-1-carboxylate] | 2.12 | 1.65 |
| 2.490 | 12.3 | COC(=O)N[C@H]1CC[C@H](Nc2nccc(-c3ccc4ccccc4c3)n2)CC1 [methyl (trans-4-{[4-(2-naphthyl)pyrimidin-2-yl]amino}cyclohexyl)carbamate] | 1.66 | 2.53 |
| – | – | COC(=O)NCC1CN(c2nccc(-c3ccc4ccccc4c3)n2)C1 [methyl ({1-[4-(2-naphthyl)pyrimidin-2-yl]azetidin-3-yl}methyl)carbamate] | 1.08 | 1.28 |
| – | – | COC(=O)NCC1CCN(c2nccc(-c3ccc4ccccc4c3)n2)CC1 [methyl ({1-[4-(2-naphthyl)pyrimidin-2-yl]piperidin-4-yl}methyl)carbamate] | 1.59 | 1.21 |
| – | – | COC(=O)NCC1CCN(c2nccc(-c3ccc4ccccc4c3)n2)C1 (stereo not drawn) [methyl ({1-[4-(2-naphthyl)pyrimidin-2-yl]pyrrolidin-3-yl}methyl)carbamate] | 1.08 | 1.04 |
| – | – | COC(=O)C(NC(=O)OC(C)(C)C)=C1CCN(c2nccc(-c3ccc4ccccc4c3)n2)CC1 [methyl [(tert-butoxycarbonyl)amino]{1-[4-(2-naphthyl)pyrimidin-2-yl]piperidin-4-ylidene}acetate] | 1.24 | 1.01 |
| – | – | COC(=O)C(NC(=O)OC(C)(C)C)C1CCN(c2nccc(-c3ccc4ccccc4c3)n2)CC1 (stereo not drawn) [methyl [(tert-butoxycarbonyl)amino]{1-[4-(2-naphthyl)pyrimidin-2-yl]piperidin-4-yl}acetate] | 0.71 | – |
| 2.360 | 3.3 | COC(=O)C(N)C1CCN(c2nccc(-c3ccc4ccccc4c3)n2)CC1 (stereo not drawn) [methyl amino{1-[4-(2-naphthyl)pyrimidin-2-yl]piperidin-4-yl}acetate] | 0.03 | – |
| – | – | COC(=O)N(C)CCN(C)[C@@H]1CCN(c2nccc(-c3ccc4ccccc4c3)n2)C1 [methyl methyl[2-(methyl{(3R)-1-[4-(2-naphthyl)pyrimidin-2-yl]pyrrolidin-3-yl}amino)ethyl]carbamate] | 1.2 | – |
| 0.890 | – | COC(=O)N[C@@H]1CCN(c2nccc(-c3ccc4ccccc4c3)n2)C1 [methyl {(3R)-1-[4-(2-naphthyl)pyrimidin-2-yl]pyrrolidin-3-yl}carbamate] | 0.43 | 2.2 |
| – | – | COC(=O)N[C@H]1CCN(c2nccc(-c3ccc4ccccc4c3)n2)C1 [methyl {(3S)-1-[4-(2-naphthyl)pyrimidin-2-yl]pyrrolidin-3-yl}carbamate] | 1.63 | 1.03 |
| – | – | CC(C)(C)OC(=O)N1CC(CNc2nccc(-c3ccc4ccccc4c3)n2)C1 [tert-butyl 3-({[4-(2-naphthyl)pyrimidin-2-yl]amino}methyl)azetidine-1-carboxylate] | 1.02 | 1.8 |
| – | – | COC(=O)C(Nc1nccc(-c2ccc3ccccc3c2)n1)C1CCN(C(=O)OC(C)(C)C)CC1 (stereo not drawn) [tert-butyl 4-(2-methoxy-1-{[4-(2-naphthyl)pyrimidin-2-yl]amino}-2-oxoethyl)piperidine-1-carboxylate] | – | 1.62 |
| – | – | CC(C)(C)OC(=O)N1CCN(C[C@H]2CCN(c3nccc(-c4ccc5ccccc5c4)n3)C2)CC1 [tert-butyl 4-({(3R)-1-[4-(2-naphthyl)pyrimidin-2-yl]pyrrolidin-3-yl}methyl)piperazine-1-carboxylate] | – | 1.95 |
| – | – | CC(C)(C)OC(=O)N1CCN(C[C@@H]2CCN(c3nccc(-c4ccc5ccccc5c4)n3)C2)CC1 [tert-butyl 4-({(3S)-1-[4-(2-naphthyl)pyrimidin-2-yl]pyrrolidin-3-yl}methyl)piperazine-1-carboxylate] | 0.85 | 1.16 |
| – | – | CC(C)(C)OC(=O)N1CCC(CNc2nccc(-c3ccc4ccccc4c3)n2)CC1 [tert-butyl 4-({[4-(2-naphthyl)pyrimidin-2-yl]amino}methyl)piperidine-1-carboxylate] | 1.18 | 0.93 |
